Source: US20130315843A1, “COMPOSITION FOR REDUCTION OF TRPA1 AND TRPV1 SENSATIONS” (priority 2012, published 2013)
Where two headings read alike, the source gives them in different places.

Tests used:
human TRPA1 = human TRPA1 (Homo sapiens, UniProt O75762); experiment: FLIPR Ca2+ assay, reduction of hydrogen peroxide activation of TRPA1; assay type: cell-based; parameters: expressed in transfected cells
Procedure: After centrifugation, a pellet of cells was formed in the bottom of the tube separating them from the supernatant solution.
(§1) The pelleted cells were re-suspended in 10 ml assay buffer and 90 μl aliquots (˜50,000 cells) per well delivered to a 96-well assay plate containing 10 μl of test compounds ([…]) or buffer control and incubated at room temperature for 30 minutes.

human TRPV1 [1] = biological target: T1, human TRPV1 (Homo sapiens, UniProt Q8NER1); experiment: FLIPR Ca2+ assay, reduction of hydrogen peroxide activation of TRPV1; assay type: cell-based; parameters: expressed in transfected cells; details: for Ca++ counts: with compound
T1 sequence (Q8NER1 whole entry): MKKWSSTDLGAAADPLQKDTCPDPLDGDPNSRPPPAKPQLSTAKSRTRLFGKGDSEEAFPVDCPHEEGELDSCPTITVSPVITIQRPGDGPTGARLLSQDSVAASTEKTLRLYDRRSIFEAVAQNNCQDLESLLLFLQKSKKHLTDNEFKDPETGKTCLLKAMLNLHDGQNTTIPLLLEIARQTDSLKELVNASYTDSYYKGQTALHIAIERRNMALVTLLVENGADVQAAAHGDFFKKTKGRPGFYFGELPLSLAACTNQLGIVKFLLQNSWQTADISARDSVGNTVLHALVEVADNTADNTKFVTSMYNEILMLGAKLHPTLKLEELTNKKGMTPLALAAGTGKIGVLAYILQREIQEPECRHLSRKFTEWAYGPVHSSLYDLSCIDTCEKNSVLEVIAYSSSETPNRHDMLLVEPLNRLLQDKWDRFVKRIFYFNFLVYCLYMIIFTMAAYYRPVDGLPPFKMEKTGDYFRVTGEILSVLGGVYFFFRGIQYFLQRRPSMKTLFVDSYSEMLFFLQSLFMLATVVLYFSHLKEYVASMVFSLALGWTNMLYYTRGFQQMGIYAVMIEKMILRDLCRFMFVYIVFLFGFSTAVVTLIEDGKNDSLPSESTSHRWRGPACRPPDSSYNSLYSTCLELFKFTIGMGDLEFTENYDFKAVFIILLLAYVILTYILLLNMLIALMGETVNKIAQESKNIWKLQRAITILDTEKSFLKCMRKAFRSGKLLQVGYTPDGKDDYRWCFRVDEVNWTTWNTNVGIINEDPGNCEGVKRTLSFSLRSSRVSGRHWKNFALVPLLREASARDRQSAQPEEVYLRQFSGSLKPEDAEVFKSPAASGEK
Procedure: (§2) Cells were detached with addition of 10 ml of PBS (phosphate buffered saline) by hand shaking gently. Cells were transferred to a 50 ml tube and centrifuged at 850 rpm for 3 minutes to remove PBS.
The pelleted cells were re-suspended in 10 ml assay buffer and 90 μl aliquots (˜50,000 cells) per well delivered to a 96-well assay plate containing 10 μl of test compounds (1 mM in assay buffer, […]) or buffer control and incubated at room temperature for 30 minutes.

human TRPV1 [2] = biological target: T1, human TRPV1; experiment: FLIPR Ca2+ assay, reduction of capsaicin activation of TRPV1; assay type: cell-based; parameters: expressed in transfected cells; details: for Ca++ counts: with compound
Procedure: as §2, §1

[3] = Trained sensory panel, burn sensation after brushing with menthol dentifrice; assay type: in vivo, human; parameters: key: 0 = no burning to 60 = highest intensity; 7.5 difference = significant; details: scale 0-60
Procedure: (§3) For EXAMPLES 6 and 7 sensory evaluation studies of menthol and hydrogen peroxide activity were conducted using a methodology patterned after the techniques described in M. C. Meilgaard, et al., Sensory Evaluation Techniques, 4th Ed. (2007). In one study, a panel of 8-15 trained sensory experts evaluated the menthol or peroxide sensations experienced after brushing with a dentifrice containing the menthol or hydrogen peroxide and the respective TRPA1 or TRPV1 antagonists. Panelists brushed teeth with 1.5 grams of a dentifrice (containing coolant) or control (no coolant) and then expectorated. After brush expectoration, panelists evaluated the burn intensity, assigning a number between 0 (no burning) to 60 ([…]). After rinse expectoration, panelists evaluated burning intensity according to the same 0 to 60 scale. Evaluations were conducted at 5, 15, 30, 45, 60 minute, etc. time points. At each evaluation, panelists were instructed to breathe in through pursed lips and evaluate overall burning sensation. In this test, a numerical score difference from the control of 7.5 indicates user significant differences or definite reduction in burning at the specified time point. Measures between 4.0 to 7.5 indicate a noticeable trend in the specified parameter, which is not statistically significant, but noticeable.
For EXAMPLE 6 (TABLES 8 and 9), a panel of 14 trained sensory experts evaluated the sensory profile experienced after brushing with the dentifrice sample formulations shown in TABLES 6 and 7 containing high levels of menthol followed by rinsing with water. Panelists brushed teeth with 1.5 grams of a test dentifrice (containing high menthol levels) or control (no menthol) for 36 seconds and then expectorated. The dentifrice sample formulations (control and high L-Menthol) are shown below in TABLE 6 (with peppermint flavor) and TABLE 7 (with spearmint flavor). The dentifrices were made using conventional methods and are shown below with component amounts in weight % of total composition. […]
For TABLE 10 all the Samples had the same formulation as Sample E from TABLE 6, except for the Control which lacked menthol. After brushing or mouthwash expectoration, panelists evaluated the burning sensation, assigning a number between 0 (no sensation) to 60 (highest intensity sensation). Evaluations were conducted at 5, 10, 20 and 30 minute time points, following expectoration. At each evaluation, panelists were instructed to breathe in through pursed lips and evaluate overall sensation. In this test, a numerical score of 7.5 indicates a significant user noticeable sensation. Differences less than 7.5, but greater than 5.0 indicate the trending of the data on a specific attribute.

[4] = Trained sensory panel, burning and numbing sensation after hydrogen peroxide mouthwash; assay type: in vivo, human; parameters: key to Burning Sensation: 0 = no sensation, 60 = highest intensity sensation; details: scale 0-60
Procedure: as §3
For EXAMPLE 7, a panel of 10 trained sensory experts evaluated the sensory profile experienced after rinsing with 30 grams of a test mouthwash (containing hydrogen peroxide and TRPA1 or TRPV1 antagonist) or control (containing hydrogen peroxide and no TRPA1 or TRPV1 antagonist) for 30 seconds and then expectorated. After expectoration, panelists evaluated the sensorial profile (cooling, warming, burning, numbing, and astringency), assigning a number between 0 (no sensation) to 60 (highest intensity sensation). Evaluations were conducted at 2.5, 5, 10, 20, and 30 minute time points, following expectoration at each evaluation, panelists were instructed to breathe in through pursed lips and evaluate overall burning or numbing sensation. The hydrogen peroxide containing mouthwash formulations are shown below in TABLE 11. The mouthwash samples tested comprised a control having the components listed in TABLE 11 by weight % of the composition or the control formulation plus TRPA1 or TRPV1 antagonist, as shown in TABLE 12. The mouthwashes were made using conventional methods and are shown below with amounts in weight % of total composition.

[5] = antagonist 400 μM against 500 μM hydrogen peroxide
[6] = 5 Min After Rinse, dentifrice Sample E (1% menthol) with antagonist levels as E42
[7] = 10 Min After Rinse, dentifrice Sample E (1% menthol) with antagonist levels as E42
[8] = 20 Min After Rinse, dentifrice Sample E (1% menthol) with antagonist levels as E42
[9] = 30 Min After Rinse, dentifrice Sample E (1% menthol) with antagonist levels as E42
[10] = After Expectoration, dentifrice Sample E (1% added menthol) with Apritone 200 ppm, Dihydrojasmone 6 ppm, Isobornyl Isobutyrate 100 ppm, α-heptyl-γ-valerolactone 100 ppm as named
[11] = After Rinse, dentifrice Sample E (1% menthol) with antagonist levels as E42
[12] = 2 Min 30 SEC After Expectoration, H2O2 mouthwash, antagonist levels as E48
[13] = 5 Min After Expectoration, H2O2 mouthwash, antagonist levels as E48
[14] = 10 Min After Expectoration, H2O2 mouthwash, antagonist levels as E48
[15] = 20 Min After Expectoration, H2O2 mouthwash, antagonist levels as E48
[16] = 30 Min After Expectoration, H2O2 mouthwash, antagonist levels as E48
[17] = After Expectoration, H2O2 mouthwash, antagonist levels as E48
[18] = Initial in Mouth, hydrogen peroxide mouthwash (TABLE 11) with Apritone 200 ppm, Isobornyl Isobutyrate 100 ppm, Dihydrojasmone 6 ppm as named, 10 panelists
[19] = antagonist 100 μM against 500 μM hydrogen peroxide

human TRPA1, sequence (O75762 whole entry): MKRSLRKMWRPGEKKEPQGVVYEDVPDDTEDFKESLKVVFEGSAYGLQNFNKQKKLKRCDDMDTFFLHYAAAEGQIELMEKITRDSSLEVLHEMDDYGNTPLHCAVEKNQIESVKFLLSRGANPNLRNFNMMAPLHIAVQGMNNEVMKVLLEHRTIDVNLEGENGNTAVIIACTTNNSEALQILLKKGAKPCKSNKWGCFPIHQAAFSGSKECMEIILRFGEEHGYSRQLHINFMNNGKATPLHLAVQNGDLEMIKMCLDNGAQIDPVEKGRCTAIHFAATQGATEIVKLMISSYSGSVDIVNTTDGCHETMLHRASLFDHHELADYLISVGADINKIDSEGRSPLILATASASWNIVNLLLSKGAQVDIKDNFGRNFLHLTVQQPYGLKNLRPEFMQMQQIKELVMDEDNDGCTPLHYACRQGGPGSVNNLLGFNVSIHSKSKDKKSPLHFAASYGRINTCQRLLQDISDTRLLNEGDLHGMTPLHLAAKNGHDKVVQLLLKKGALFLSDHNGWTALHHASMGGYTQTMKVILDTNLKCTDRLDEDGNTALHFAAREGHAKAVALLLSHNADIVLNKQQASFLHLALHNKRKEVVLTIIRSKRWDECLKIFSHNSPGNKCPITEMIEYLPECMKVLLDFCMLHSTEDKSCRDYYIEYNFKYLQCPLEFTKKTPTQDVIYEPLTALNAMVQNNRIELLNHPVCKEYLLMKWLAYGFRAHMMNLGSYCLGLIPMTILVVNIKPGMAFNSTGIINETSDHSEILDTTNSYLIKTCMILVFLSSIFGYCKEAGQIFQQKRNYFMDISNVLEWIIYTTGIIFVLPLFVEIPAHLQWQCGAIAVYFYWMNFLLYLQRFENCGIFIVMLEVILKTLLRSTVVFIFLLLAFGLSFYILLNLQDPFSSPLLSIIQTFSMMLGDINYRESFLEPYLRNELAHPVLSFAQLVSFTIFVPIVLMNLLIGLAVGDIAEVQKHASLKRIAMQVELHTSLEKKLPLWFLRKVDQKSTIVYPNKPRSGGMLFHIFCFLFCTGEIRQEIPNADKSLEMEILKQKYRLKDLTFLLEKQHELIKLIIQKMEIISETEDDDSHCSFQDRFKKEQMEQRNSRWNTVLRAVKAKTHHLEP

In the case of `Cn1cccc1C=O` [1-Methyl-2-pyrole carboxaldehyde], the “reduction of hydrogen peroxide activation of TRPA1, in words” value (human TRPA1) is reported as “reduced hydrogen peroxide activation of TRPA1”, the “Block of hydrogen peroxide activation of TRPA1” value (“Block” for short) (human TRPA1; 400 μM antagonist vs 500 μM hydrogen peroxide) is reported as “BLOCK ONLY H2O2/TRPA1” and the “% Reduction of Hydrogen Peroxide TRPA1 Activation” value (human TRPA1; antagonist 400 μM against 200 μM hydrogen peroxide) is reported as 42%. The “reduction of hydrogen peroxide activation of TRPV1, in words” value (human TRPV1 [1]) was “hydrogen peroxide reduction of TRPV1”, the “% inhibition of TRPV1 activation by 500 uM H2O2” value (“% inhibition … by 500 uM H2O2” below) (human TRPV1 [1]; Dose 4000) was 79% and the “% Reduction of Hydrogen Peroxide TRPV1 Activation” value (human TRPV1 [1]; [5]) was 79%. For the same compound, the “Ca++ counts” value (human TRPV1 [1]; Dose 4000, 500 uM H2O2) was 380, the “% inhibition of TRPV1 activation by 350 nM Capsaicin” value (“% inhibition … by 350 nM Capsaicin” for short) (human TRPV1 [2]; Dose 4000) was 3% and the “Ca++ counts” value (human TRPV1 [2]; Dose 4000, 350 nM Capsaicin) was 11516.
With `CCC(C)COC(=O)CC(C)C` (stereo not shown) [2-Methylbutyl isovalerate] the inhibition at 400 µM (human TRPV1 [1]; [5]) was 79%, the “Ca++ counts” value (human TRPV1 [1]; Dose 4000, 500 uM H2O2) was 380 and the “Ca++ counts” value (human TRPV1 [2]; Dose 4000, 350 nM Capsaicin) was 11278.
For `CCCCCC(CC)OC(C)=O` (stereo not shown) [3-Octyl Acetate], the inhibition at 400 µM (human TRPV1 [1]; [5]) was 90%, the “Ca++ counts” value (human TRPV1 [1]; Dose 4000, 500 uM H2O2) was 181 and the “Ca++ counts” value (human TRPV1 [2]; Dose 4000, 350 nM Capsaicin) was 12109.
For `CC(C)=CCC/C(C)=C/CC1CCCC1=O` (stereo not shown) [Apritone], the “Burning Sensation Rating” value [3, 6] was 13.3, the “Burning Sensation Rating” value [3, 7] was 5.3 and the “Burning Sensation Rating” value [3, 8] was 0.0. For the same compound, the “Burning Sensation Rating” value [3, 9] was 0.0, the “Burning Sensation Rating” value [3, 10] was 27.4 and the “Burning Sensation Rating” value [3, 11] was 24.0. For the same compound, the “Burning Sensation” value [4, 12] was 20.8, the “Numbing Sensation” value [4, 12] was 12.4 and the “Burning Sensation” value [4, 13] was 16.0. For the same compound, the “Numbing Sensation” value [4, 13] was 10.1, the “Burning Sensation” value [4, 14] was 8.6 and the “Numbing Sensation” value [4, 14] was 6.0. The “Burning Sensation” value [4, 15] was 3.3, the “Numbing Sensation” value [4, 15] was 4.2 and the “Burning Sensation” value [4, 16] was 1.3. The “Numbing Sensation” value [4, 16] was 0.8, the “Burning Sensation” value [4, 17] was 21.9 and the “Numbing Sensation” value [4, 17] was 11.6. The “Burning Sensation” value [4, 18] was 12.6, the “% inhibition … by 500 uM H2O2” value (human TRPV1 [1]; Dose 1000) was 96% and the “% Reduction of Hydrogen Peroxide TRPV1 Activation” value (human TRPV1 [1]; [19]) was 96%. For the same compound, the “Ca++ counts” value (human TRPV1 [1]; Dose 1000, 500 uM H2O2) was 66, the “% inhibition … by 350 nM Capsaicin” value (human TRPV1 [2]; Dose 1000) was 10% and the “Ca++ counts” value (human TRPV1 [2]; Dose 1000, 350 nM Capsaicin) was 13526.
For `CCCCOC(=O)C(C)C` [Butyl Isobutyrate], the inhibition at 400 µM (human TRPV1 [1]; [5]) was 58%, the “Ca++ counts” value (human TRPV1 [1]; Dose 4000, 500 uM H2O2) was 774 and the “Ca++ counts” value (human TRPV1 [2]; Dose 4000, 350 nM Capsaicin) was 11278.
For `CC(CC=O)CCCC(C)(C)O` (stereo not shown) [Hydroxycitronellal], the “Block” value (human TRPA1; 100 μM antagonist vs 500 μM hydrogen peroxide) was “BLOCK ONLY H2O2/TRPA1”, the “Average Ca++ Counts” value (human TRPA1; compound 100 μM against 200 μM hydrogen peroxide, Sets 1-4) was 6313.0 Counts and the inhibition at 100 µM (human TRPA1; compound 100 μM against 200 μM hydrogen peroxide, Sets 1-4, read-out: % Reduction of Hydrogen Peroxide TRPA1 Activation) was 40.4%. For the same compound, the inhibition at 100 µM (human TRPV1 [1]; [19]) was 62%, the “Ca++ counts” value (human TRPV1 [1]; Dose 1000, 500 uM H2O2) was 627 and the “Ca++ counts” value (human TRPV1 [2]; Dose 1000, 350 nM Capsaicin) was 14728.
For `CC(C)C(=O)O[C@@H]1C[C@H]2CC[C@]1(C)C2(C)C` [Isobornyl Isobutyrate], the “Burning Sensation Rating” value [3, 6] was 12.8, the “Burning Sensation Rating” value [3, 7] was 5.6 and the “Burning Sensation Rating” value [3, 8] was 0.6. The “Burning Sensation Rating” value [3, 9] was 0.0, the “Burning Sensation Rating” value [3, 10] was 25.4 and the “Burning Sensation Rating” value [3, 11] was 22.8. For the same compound, the “Burning Sensation” value [4, 12] was 17.6, the “Numbing Sensation” value [4, 12] was 7.9 and the “Burning Sensation” value [4, 13] was 11.4. For the same compound, the “Numbing Sensation” value [4, 13] was 5.8, the “Burning Sensation” value [4, 14] was 5.1 and the “Numbing Sensation” value [4, 14] was 2.5. The “Burning Sensation” value [4, 15] was 0.0, the “Numbing Sensation” value [4, 15] was 0.0 and the “Burning Sensation” value [4, 16] was 0.0. For the same compound, the “Numbing Sensation” value [4, 16] was 0.0, the “Burning Sensation” value [4, 17] was 20.9 and the “Numbing Sensation” value [4, 17] was 8.4. For the same compound, the “Burning Sensation” value [4, 18] was 12.7, the “% Reduction of Hydrogen Peroxide TRPA1 Activation” value (human TRPA1) was 80% and the “Block” value (human TRPA1) was “BLOCK ONLY H2O2/TRPA1”. The “reduction of hydrogen peroxide activation of TRPA1, in words” value (human TRPA1) was “reduced hydrogen peroxide activation of TRPA1”, the “reduction of hydrogen peroxide activation of TRPV1, in words” value (human TRPV1 [1]) was “hydrogen peroxide reduction of TRPV1” and the “% inhibition … by 500 uM H2O2” value (human TRPV1 [1]; Dose 1000) was 52%. The “% Reduction of Hydrogen Peroxide TRPV1 Activation” value (human TRPV1 [1]; [19]) was 52%, the “Ca++ counts” value (human TRPV1 [1]; Dose 1000, 500 uM H2O2) was 541 and the “% inhibition … by 350 nM Capsaicin” value (human TRPV1 [2]; Dose 1000) was 1.5%. For the same compound, the “Ca++ counts” value (human TRPV1 [2]; Dose 1000, 350 nM Capsaicin) was 14803.
